The target in this assay is T1, rh beta tryptase (Homo sapiens, UniProt P20231).
T1 construct: purchased Promega
Put plainly: Tryptase inhibition test (cleavage of N-p-tosyl-Gly-Pro-Lys-para-nitroaniline, p-nitroaniline measured at 405 nm). The format is biochemical. The note with it: pH 7.4, 37° C.; for inhibition at 10 µM / % Inhibition (10 μM): inhibition of rh beta tryptase at 10 μM test substance, substrate N-p-tosyl-Gly-Pro-Lys-para-nitroaniline 0.6 mM, 5 minutes; for IC50: concentration at which 50% of the tryptase enzyme activity is inhibited, substrate 0.6 mM. Here is the method:
The compounds according to the invention are characterised by their tryptase-inhibiting activity. This ability to inhibit tryptase was investigated using the test described below.
The measurement is carried out in Tris HCl buffer (100 mM), which additionally contains calcium (5 mM) and heparin ([…]), at pH 7.4. The standard used is rh beta tryptase which may be obtained commercially from Promega, for example. The substrate used is N-p-tosyl-Gly-Pro-Lys-para-nitroaniline in a concentration of 0.6 mM. The substrate is digested with tryptase to form p-nitroaniline which can be measured at 405 nm. Usually, an incubation period of 5 minutes and an incubation temperature of 37° C. are chosen. The enzyme activity used is 0.91 U/ml. The measurements are carried out in an Autoanalyser (Cobas Bio) made by Hofmann LaRoche. The potential inhibitory substances are used in concentrations of 10 μM in the screening, the inhibition of the tryptase being given in percent. The IC50 is determined at over 70% inhibition (concentration at which 50% of the enzyme activity is inhibited). After 5 minutes' pre-incubation of the potential inhibitory substances, the substrate is added to start the reaction, the formation of p-nitroaniline being taken as a measurement of the enzyme activity after 5 minutes, after testing the linearity.
The data obtained after the above test has been carried out (% inhibition) are assembled in Table 25 for the compounds according to the invention. The IC50 values obtained for the compounds according to the invention can be found in Table 26.
Table 26 contains the IC50 binding values obtained for the compounds according to the invention. These were measured as described above.

Where a name gives a salt, the structure may show the parent alone.

T1 sequence (P20231 31-275): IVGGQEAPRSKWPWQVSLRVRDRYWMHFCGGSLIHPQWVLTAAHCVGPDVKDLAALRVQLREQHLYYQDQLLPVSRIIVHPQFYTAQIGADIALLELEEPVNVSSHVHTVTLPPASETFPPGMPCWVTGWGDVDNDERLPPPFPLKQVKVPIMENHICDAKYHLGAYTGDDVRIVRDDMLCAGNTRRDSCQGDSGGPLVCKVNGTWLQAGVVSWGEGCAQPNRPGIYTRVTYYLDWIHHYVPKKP

Compound `CCOCCCn1c(CCc2ccc(C(=N)N)cc2)nc2cc(C(=O)N(Cc3ccc(CN)cc3)Cc3ccc(C(=O)OC)cc3)ccc21` [Example 438, 2-[2-(4-amidinophenyl)ethyl]-1-(3-ethoxypropyl)-benzimidazol-5-yl-carboxylic acid-N-[4-(amino-methyl)-benzyl]-N-[4-(methoxycarbonyl)-benzyl]-amide] gave an inhibition at 10 µM of 59%.

As to `Cc1ccc(Cn2c(CCc3ccc(C(=N)N)cc3)nc3cc(C(=O)N(Cc4ccc(CN)cc4)Cc4ccc5ccccc5c4)ccc32)cc1` [Example 237, 2-[2-(4-amidinophenyl)ethyl]-1-(4-methylbenzyl)-benzimidazol-5-yl-carboxylic acid-N-[4-(amino-methyl)-benzyl]-N-(2-naphthylmethyl)-amide], the inhibition at 10 µM was 52%.

In turn, `Cn1c(CCc2ccc(C(=N)N)cc2)nc2cc(C(=O)N(CCC(=N)N)C3CCCCCCC3)ccc21` [Example 25, 2-[2-(4-Amidinophenyl)-ethyl]-1-methyl-benzimidazol-5-yl-carboxylic Acid-N-(2-amidinoethyl)-N-cyclooctyl-amide-dihydrochloride] yielded a concentration for half-maximal inhibition (IC50) of 55 nM.

Regarding `N=C(N)c1ccc(CCc2nc3cc(C(=O)N(CCN)Cc4ccccc4)ccc3n2Cc2cccs2)cc1` [Example 307, 2-[2-(4-amidinophenyl)ethyl]-1-(2-thiophenyl-methyl)-benzimidazol-5-yl-carboxylic acid-N-(2-aminoethyl)-N-benzyl-amide], the inhibition at 10 µM was determined as 57%.

As to “2-[2-(4-amidinophenyl)ethyl]-1-[3-(morpholin-4-yl)-propyl]-benzimidazol-5-yl-carboxylic acid-N-[4-(amino-methyl)-benzyl]-N-(3-pyridyl)-amide [Example 145]”, the “% Inhibition (10 μM)” value worked out at 73%.

Consider “2-[2-(4-amidinophenyl)ethyl]-1-(2 thiophenyl-methyl)-benzimidazol-5-yl-carboxylic acid-N-[4-(amino-methyl)-benzyl]-N-(3-pyridyl)-amide [Example 147]”, for which the “% Inhibition (10 μM)” value came to 51%.

On to `CCCCN(CCN)C(=O)c1ccc2c(c1)nc(CCc1ccc(C(=N)N)cc1)n2CCCOCC` [Example 278, 2-[2-(4-amidinophenyl)ethyl]-1-(3-ethoxypropyl)-benzimidazol-5-yl-carboxylic acid-N-(2-aminoethyl)-N n-butyl-amide], for which half-maximal inhibition (IC50) was put at 251 nM and 10 µM produced 83% inhibition.

Take `CCOCCCn1c(CCc2ccc(C(=N)N)cc2)nc2cc(C(=O)N(Cc3ccc(Cl)cc3)Cc3ccc(CN)cc3)ccc21` [Example 182, 2-[2-(4-amidinophenyl)ethyl]-1-(3-ethoxypropyl)-benzimidazol-5-yl-carboxylic acid-N-[4-(amino-methyl)-benzyl]-N-(4-chlorbenzyl)-amide]: the “% Inhibition (10 μM)” value worked out at 67%.

`CCCCN(Cc1ccc(CN)cc1)C(=O)c1ccc2c(c1)nc(CCc1ccc(C(=N)N)cc1)n2Cc1cccs1` [Example 99, 2-[2-(4-amidinophenyl)ethyl]-1-(2-thiophenyl-methyl)-benzimidazol-5-yl-carboxylic acid-N-[4-(amino-methyl)-benzyl]-N-n-butyl-amide] yielded an inhibition at 10 µM of 58%.

Take `CCc1cccc(N(CCC(=N)N)C(=O)c2ccc3c(c2)nc(CCc2ccc(C(=N)N)cc2)n3C)c1` [Example 22, 2-[2-(4-Amidinophenyl)-ethyl]-1-methyl-benzimidazol-5-yl-carboxylic Acid-N-(2-amidinoethyl)-N-(3-ethyl-phenyl)-amide-dihydrochloride]: it took 56 nM to reach half-maximal inhibition (IC50).

As for `N=C(N)c1ccc(CCc2nc3cc(C(=O)N(Cc4ccc(CN)cc4)Cc4cccc(C(F)(F)F)c4)ccc3n2CC2CCCO2)cc1` (stereo not drawn) [Example 210, 2-[2-(4-amidinophenyl)ethyl]-1 (tetrahydrofuran-2-yl-methyl)-benzimidazol-5-yl-carboxylic acid-N-[4-(amino-methyl)-benzyl]-N-(3-trifluoromethylbenzyl)-amide], at 10 µM the inhibition was 59%.

In the case of `CCOCCCn1c(CCc2ccc(C(=N)N)cc2)nc2cc(C(=O)N(CCN)c3ccccn3)ccc21` [Example 310, 2-[2-(4-amidinophenyl)ethyl]-1-(3-ethoxypropyl)-benzimidazol-5-yl-carboxylic acid-N-(2-aminoethyl)-N (2-pyridyl)-amide], the IC50 stood at 253 nM and the “% Inhibition (10 μM)” value came out at 70%.

The compound `N=C(N)c1ccc(CCc2nc3cc(C(=O)N(CCN)Cc4ccccc4)ccc3n2CC2CC2)cc1` [Example 298, 2-[2-(4-amidinophenyl)ethyl]-1-cyclopropylmethyl-benzimidazol-5-yl-carboxylic acid-N-(2-aminoethyl)-N-benzyl-amide] showed an inhibition at 10 µM of 57%.

In turn, `CCCCN(CCN)C(=O)c1ccc2c(c1)nc(CCc1ccc(C(=N)N)cc1)n2CC1CC1` [Example 282, 2-[2-(4-amidinophenyl)ethyl]-1-cyclopropylmethyl-benzimidazol-5-yl-carboxylic acid-N-(2-aminoethyl)-N-n-butyl-amide] registered an inhibition at 10 µM of 65%.

Compound `Cc1cccc(N2CCN(C(=O)c3ccc4c(c3)nc(CCc3ccc(C(=N)N)cc3)n4C)CC2)c1` [Example 47, 2-[2-(4-Amidinophenyl)-ethyl]-1-methyl-benzimidazol-5-yl-carboxylic Acid-[N′-(3-methylphenyl)-piperazide]] showed a 50% inhibitory concentration (IC50) of 118 nM.

Turning to `CCCCN(CCN)C(=O)c1ccc2c(c1)nc(CCc1ccc(C(=N)N)cc1)n2Cc1cccs1` [Example 291, 2-[2-(4-amidinophenyl)ethyl]-1-(2-thiophenyl-methyl)-benzimidazol-5-ylcarboxylic acid-N-(2-aminoethyl)-N-n-butyl-amide], the inhibition at 10 µM is 75%.

As for “2-[2-(4-amidinophenyl)ethyl]-1-(2-phenylethyl)-benzimidazol-5-yl-carboxylic acid-N-[4-(amino-methyl)-benzyl]-N-(3-pyridyl)-amide [Example 139]”, the “% Inhibition (10 μM)” value came out at 76%.

Regarding “2-[2-(4-amidinophenyl)ethyl]-1-[3-(benzylcarbonylamino)-propyl]-benzimidazol-5-yl-carboxylic acid-N-[4-(amino-methyl)-benzyl]-N-(3-pyridyl)-amide [Example 136]”, the “% Inhibition (10 μM)” value is 74%.

On to “2-[2-(4-amidinophenyl)ethyl]-1-[3-(benzylcarbonylamino)-propyl]-benzimidazol-5-yl-carboxylic acid-N-(2-aminoethyl)-N-(2-pyridyl)-amide [Example 312]”, for which the “% Inhibition (10 μM)” value stood at 55%.

As to `CCOCCCn1c(CCc2ccc(C(=N)N)cc2)nc2cc(C(=O)N(Cc3ccc(CN)cc3)Cc3ccccc3F)ccc21` [Example 214, 2-[2-(4-amidinophenyl)ethyl]-1-(3-ethoxypropyl)-benzimidazol-5-yl-carboxylic acid-N-[4-(amino-methyl)-benzyl]-N-(2-fluorobenzyl)-amide], it took 335 nM to reach half-maximal inhibition (IC50) and testing at 10 µM gave an inhibition of 54%.

In the case of `CCCCN(Cc1ccc(CN)cc1)C(=O)c1ccc2c(c1)nc(CCc1ccc(C(=N)N)cc1)n2CC1CCCO1` (stereo not drawn) [Example 98, 2-[2-(4-amidinophenyl)ethyl]-1-(tetrahydrofuran-2-yl-methyl)-benzimidazol-5-yl-carboxylic acid-N-[4-(amino-methyl)-benzyl]-N-n-butyl-amide], at 10 µM the inhibition was 67%.

Broadly, the inhibition is the share of the control response that was lost under treatment. A higher inhibition goes with a strong effect. One may read the IC50 as the midpoint of a concentration-inhibition curve. High values mean lower potency, low ones higher potency.

(Values after patent US6512000B1, “Aminocarbonyl-substituted benzimidazoles having tryptase-inhibitory activity” (Boehringer Ingelheim Pharma KG, priority 1999, dated 2003).)
